Source: US20240382475A1, “Quinazoline Derivative, Or Preparation Method Therefor And Use Thereof” (Zhejiang Hisun Pharmaceutical Co., Ltd., priority 2021, published 2024)

What was measured:
[1] = system: human lung cancer NCI-H2122 subcutaneous xenotransplanted tumor; test: Pharmacodynamic evaluation in nude mouse subcutaneous xenotransplanted model of human lung cancer NCI-H2122; type: in vivo, Balb/c nude mouse; conditions: 30 mg/kg each agent
Experimental: The anti-tumor effect and safety of compound 11 of the present invention were evaluated in a Balb/c nude mouse animal model of subcutaneous xenotransplanted NCI-H2122.
BALB/c; nude mice, female, 6-7 weeks old (the age of mice when tumor cells were inoculated), purchased from Jiangsu Jicui Yaokang Biotechnology Co., Ltd.
The solvent control group was given DMSO:castor oil:5% glucose injection=20:10:70 (v/v/v).
(§1) AMG-510: an appropriate amount of AMG-510 was weighed, and an appropriate amount of DMSO:castor oil:5% glucose injection=20:10:70 (v/v/v) was added. After the above mixture was fully dissolved, an appropriate amount of 1 M hydrochloric acid was added, vortexed and mixed to prepare a solution with a concentration of 3 mg/mL.
as §1, with “Compound 11:” for “AMG-510:”, “compound 11” for “AMG-510”
H2122 cells were cultured in 1640 culture medium containing 10% fetal bovine serum and 1% penicillin-streptomycin-amphotericin B solution. H2122 cells in the exponential growth phase were collected and resuspended in matrigel solution (matrigel:PBS=1:1 (V/V)) to a suitable concentration for subcutaneous tumor inoculation in nude mice.
Female Balb/c nude mice were subcutaneously inoculated with about 3.0×10^6H2122 cells on the right sides of their backs. When the average volume of the tumors reaches about 150-200 mm^3, the mice were randomly divided according to the tumor sizes with 6 mice in each group.
• Group 1 (G1), solvent control group; • Group 2 (G2), AMG-510 was given by intragastric administration at a dose of 30 mg/kg; • Group 3 (G3), Example 11 was given by intragastric administration at a dose of 30 mg/kg; • Group 4 (G4), AMG-510 and Example 11 were administered in combination, and the dosages were respectively: AMG-510, 30 mg/kg (QD); Example 11, 30 mg/kg (QD).
After tumor inoculation, routine monitoring included the effects of tumor growth and treatment on the normal behaviors of the animals, specifically the mobility, feeding and drinking, weight gain or loss, eyes, coat and other abnormalities of the experimental animals.
Calculation formulae for a relative tumor volume (RTV), a relative tumor proliferation rate (T/C) and a tumor inhibition percentage (IR) were as follows: • (1) TV (tumor volume)=½×a×b^2, wherein a and b represent the length and width of the tumor respectively; • (2) RTV (relative tumor volume)=Vt/Vo, wherein Vo is the tumor volume measured at the time of administration when grouping (i.e. do), and Vt is the tumor volume at each measurement; • (3) relative tumor proliferation rate T/C (%)=TRTV/CRTV×100%, wherein TRTV is the RTV of the treatment group and CRTV is the RTV of the control group; • (4) Tumor growth inhibition rate TGI(%)=(1−T/C)×100%; wherein, T and C are the relative tumor volumes of the treatment group and the control group at a specific time point. • (5) IR (%)=(1−TWt/TWc)×100%, wherein, TWt is the tumor weight of the treatment group and TWc is the tumor weight of the control group. The anti-tumor evaluation criteria are (cytotoxic drugs): T/C(%)>40% is invalid; T/C(%)≤40%, and after statistical processing, P<0.05 is effective.

[2] = system: OCI-AML5 cells; test: Inhibition of OCI-AML5 cell proliferation (CellTiter-Glo); type: cell-based; conditions: Homo sapiens, OCI-AML-5; OCI-AML5 cells (SOS1 N233Y mutation), 120 hours
Experimental: The following method was used to determine the influence of the compounds of the present invention on OCI-AML5 cells proliferation. OCI-AML5 cells (containing SOS1 N233Y mutation) were purchased from Nanjing Kebai Biotechnology Co., Ltd. and cultured in MEMα medium containing 10% fetal bovine serum, 100 U penicillin, and 100 μg/mL streptomycin. The activities of the cells were determined by CellTiter-Glo® Luminescent Cell Viability Assay Kit (Promega, Art. No. G7573).
The experimental method was operated according to the steps in the kit instruction, which were briefly described as follows: the test compounds were first dissolved in DMSO to prepare storage solutions of 10 mM, and then diluted with culture mediums to prepare test samples. The final concentrations of the compounds were 10000 nM to 0.15 nM. Cells in logarithmic phase were inoculated in a 96-well cell culture plate with 1,000 cells per well, after cultured overnight in 5% CO2 incubator at 37° C., the test compounds were added to the incubator to continue the culture for 120 hours. After the culture was completed, 50 μL of CellTiter-Glo detection solution was added to each well, shaken for 5 minutes and then stood for 10 minutes. Then, a Luminescence mode was used to read the luminescence values of each well of the samples on a microplate reader.

[3] = biological target: T1, KRAS-G12C/SOS1 (Homo sapiens, UniProt Q07889); test: Blocking the binding of KRAS G12C protein to SOS1 (Cisbio KRAS-G12C/SOS1 binding assay kit, TR-FRET); conditions: Tag1-SOS1 and Tag2-KRAS-G12C, TR-FRET 665/620; read-out: IC50 (nM) Inhibition of KRAS-G12C/SOS1 binding
T1 construct: purchased Cisbio 63ADK000CB16PEG
T1 sequence (Q07889 1-1333): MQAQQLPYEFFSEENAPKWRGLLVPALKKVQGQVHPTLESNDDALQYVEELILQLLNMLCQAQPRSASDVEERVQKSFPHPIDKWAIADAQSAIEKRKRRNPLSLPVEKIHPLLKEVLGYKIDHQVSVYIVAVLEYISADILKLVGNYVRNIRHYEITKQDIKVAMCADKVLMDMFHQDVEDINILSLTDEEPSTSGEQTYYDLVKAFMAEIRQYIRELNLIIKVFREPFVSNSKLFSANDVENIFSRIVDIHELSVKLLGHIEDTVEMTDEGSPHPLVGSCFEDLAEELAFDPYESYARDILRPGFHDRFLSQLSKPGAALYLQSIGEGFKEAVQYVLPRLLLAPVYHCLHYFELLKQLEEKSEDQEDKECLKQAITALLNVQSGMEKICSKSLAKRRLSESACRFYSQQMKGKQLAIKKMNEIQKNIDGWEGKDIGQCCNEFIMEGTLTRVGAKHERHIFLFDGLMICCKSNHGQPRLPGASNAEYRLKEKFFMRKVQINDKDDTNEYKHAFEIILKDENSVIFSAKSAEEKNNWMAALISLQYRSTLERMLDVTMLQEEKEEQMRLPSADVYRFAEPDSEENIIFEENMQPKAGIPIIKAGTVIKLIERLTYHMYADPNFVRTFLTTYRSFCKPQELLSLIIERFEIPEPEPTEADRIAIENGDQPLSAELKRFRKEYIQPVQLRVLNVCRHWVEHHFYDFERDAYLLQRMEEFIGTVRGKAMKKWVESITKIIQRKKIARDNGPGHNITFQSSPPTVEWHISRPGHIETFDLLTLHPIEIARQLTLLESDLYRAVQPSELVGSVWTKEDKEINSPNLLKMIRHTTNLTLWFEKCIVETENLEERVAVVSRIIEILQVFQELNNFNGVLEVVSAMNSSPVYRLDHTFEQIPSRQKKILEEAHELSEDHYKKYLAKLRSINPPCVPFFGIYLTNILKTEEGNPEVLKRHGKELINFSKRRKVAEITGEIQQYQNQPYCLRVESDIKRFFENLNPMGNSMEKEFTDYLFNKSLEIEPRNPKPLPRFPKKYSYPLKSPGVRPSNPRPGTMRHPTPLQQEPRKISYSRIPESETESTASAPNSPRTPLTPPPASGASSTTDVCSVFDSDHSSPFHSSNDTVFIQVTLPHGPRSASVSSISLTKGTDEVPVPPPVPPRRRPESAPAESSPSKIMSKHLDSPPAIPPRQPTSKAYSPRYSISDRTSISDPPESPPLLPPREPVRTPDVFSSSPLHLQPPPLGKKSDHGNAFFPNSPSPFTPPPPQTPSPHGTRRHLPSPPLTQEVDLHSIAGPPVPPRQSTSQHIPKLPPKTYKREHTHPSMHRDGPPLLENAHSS
From the text: The following method was used to determine the abilities of compounds of the invention to block the interaction of SOS1 with the KRAS G12C protein in vitro. KRAS-G12C/SOS1 BINDING ASSAY KITS (Art. No. 63ADK000CB16PEG) from Cisbio was used in this method. Please refer to the kit instruction for detailed experimental operations.
The experimental process can be briefly described as follows: diluent buffer (Art. No. 62DLBDDF) was used to prepare a working solution with a concentration of 5× for Tag1-SOS1 and Tag2-KRAS-G12C protein. The test compounds were dissolved in DMSO to prepare storage solutions of 10 mM, and then the solutions were diluted with dilution buffer for later use. First, 2 μL of the test compound (the final concentrations of the reaction system were 10000 nM-0.1 nM) was added to the well, then 4 μL of Tag1-SOS1 5× working solution and 4 μL of Tag2-KRAS-G12C 5× working solution were added, and the above mixture was centrifuged, mixed, and stood for 15 minutes; then 10 μL of premixed anti-Tag1-Tb^3+ and anti-Tag2-XL665 were added, and the mixture was incubated at room temperature for 2 hours; finally, a microplate reader was used in […] mode to measure the fluorescence intensity of each well emitting wavelengths of 620 nm and […] under the excitation wavelength of 304 nm, and the fluorescence intensity ratio 665/620 in each well was calculated. Compared with the fluorescence intensity ratio of a control group (0.1% DMSO), the percentage inhibition rates of the test compounds at each concentration were calculated, and the IC50 values of the compounds were obtained by performing nonlinear regression analysis with logarithmic values of the compound concentration-inhibition rate by GraphPad Prism 5 software, which was shown in Table 1.

SMILES: C=CC(=O)N1CCN(c2nc(=O)n(-c3c(C)ccnc3C(C)C)c3nc(-c4c(O)cccc4F)c(F)cc23)[C@@H](C)C1 [AMG-510, reference compound]
- Relative tumor volume (x ± S) ([1]; 16 days after administration): 2.90 ± 0.26
- TGI % ([1]; 16 days after administration): 43.0%
- Tumor volume (x ± S) ([1]; Day 0 after administration, intragastric): 199 ± 21 mm^3
- Tumor volume (x ± S) ([1]; Day 3 after administration, intragastric): 263 ± 17 mm^3
- Tumor volume (x ± S) ([1]; Day 7 after administration, intragastric): 343 ± 29 mm^3
- Tumor volume (x ± S) ([1]; Day 10 after administration, intragastric): 406 ± 38 mm^3
- Tumor volume (x ± S) ([1]; Day 14 after administration, intragastric): 538 ± 47 mm^3
- Tumor volume (x ± S) ([1]; Day 16 after administration, intragastric): 563 ± 58 mm^3
- Tumor volume (x ± S) ([1]; Table 11, 16 days after administration, in mm³): 563 ± 58
- Inhibition rate of tumor weight (%) ([1]; end of the experiment): 44.3%
- Tumor weight (g) (x ± S) ([1]; end of the experiment): 0.4203 ± 0.0447 g

SMILES: COc1cc2nc(C)nc(N[C@H](C)c3cccc(C#N)c3C)c2cc1N1CCN2C(=O)CCC2C1 (stereo partly drawn) [Compound 3, 3-((1R)-1-((7-methoxy-2-methyl-6-(6-oxohexahydropyrrolo[1,2-a]pyrazin-2(1H)-yl)quinazolin-4-yl)amino)ethyl)-2-methylbenzonitrile]
- IC50 [2]: 42.9 nM

SMILES: COc1cc2nc(C)nc(N[C@H](C)c3cccc(C#N)c3C)c2cc1N1CCC(N2CCOCC2)CC1 [Compound 6, (R)-3-(1-((7-methoxy-2-methyl-6-(4-morpholinopiperidin-1-yl)quinazolin-4-yl)amino)ethyl)-2-methylbenzonitrile]
- IC50 [3]: 1.1 nM
- IC50 [2]: 5.5 nM

SMILES: COc1cc2nc(C)nc(N[C@H](C)c3cccc(C#N)c3C)c2cc1N1CC2COCC2C1 (stereo partly drawn) [Compound 9, 3-((1R)-1-((7-methoxy-2-methyl-6-(tetrahydro-1H-furo[3,4-c]pyrrol-5(3H)-yl)quinazolin-4-yl)amino)ethyl)-2-methylbenzonitrile]
- IC50 [3]: 53.7 nM
- IC50 [2]: 25 nM

SMILES: COc1cc2nc(C)nc(N[C@H](C)c3cccc(C#N)c3C)c2cc1N1CCN(C)CC1 [Compound 10, (R)-3-(1-((7-methoxy-2-methyl-6-(4-methylpiperazin-1-yl)quinazolin-4-yl)amino)ethyl)-2-methylbenzonitrile]
- IC50 [3]: 36.7 nM
- IC50 [2]: 16.8 nM

SMILES: COc1cc2nc(C)nc(N[C@H](C)c3cccc(C#N)c3C)c2cc1N1CCC2(CC1)CN(S(C)(=O)=O)C2 [Compound 16, (R)-3-(1-((7-methoxy-2-methyl-6-(2-(methylsulfonyl)-2,7-diazaspiro[3.5]nonan-7-yl)quinazolin-4-yl)amino)ethyl)-2-methylbenzonitrile]
- IC50 [3]: 54.3 nM

SMILES: COc1cc2nc(C)nc(N[C@H](C)c3cccc(C#N)c3C)c2cc1N1CCC(N2CCCC2=O)CC1 [Compound 21, (R)-3-(1-((7-methoxy-2-methyl-6-(4-(2-oxopyrrolidin-1-yl)piperidin-1-yl)quinazolin-4-yl)amino)ethyl)-2-methylbenzonitrile]
- IC50 [3]: 63.2 nM

SMILES: COc1cc2nc(C)nc(N[C@H](C)c3cccc(C#N)c3C)c2cc1N1CCC(N2CCN(S(C)(=O)=O)CC2)CC1 [Compound 23, (R)-3-(1-((7-methoxy-2-methyl-6-(4-(4-(methylsulfonyl)piperazin-1-yl)piperidin-1-yl)quinazolin-4-yl)amino)ethyl)-2-methylbenzonitrile]
- IC50 [2]: 41.1 nM
